Experimental data from patent US6664231B1, “Anti-fungal peptides” (priority 1993, dated 2003).
Square brackets hold non-standard residues; d marks the D form. Peptide text beside a SMILES is read from it. Phe(4-NH2) = Nc1ccc(C[C@H](N)C(=O)O)cc1; 1Nal = N[C@@H](Cc1cccc2ccccc12)C(=O)O

Each compound was assayed on C. albicans (CA-1, Strain SLU-1) (assay: Radial diffusion assay). Conditions: pmoles of peptide added to well to achieve a 30 mm^2 zone, PROBIT analysis; crude or purified (P′) peptide.
Assay type: cell-based, Candida albicans
Description: In the radial diffusion assay procedures, the CA-1 cultures and peptide solutions were prepared as in the broth assay procedure described above. Ten mL of molten underlayer agarose comprising 3% Sabouraud Dextrose broth, 1% agarose (Pharmacia, Piscataway, N.J.), 0.02% Tween 20, and 10 mM sodium phosphate at pH 7.4, was added to polystyrene tubes and maintained in a 56° C. water bath until the addition of yeast. Tubes were cooled to approximately 45° C., yeast were added to give a final concentration of 1×10^6 CFU/mL, and the tubes were mixed again by inverting. The contents were poured into level square petri dishes and distributed evenly. […] A series of wells were punched into the hardened agarose using a sterile 3 mm punch attached to a vacuum apparatus.
Peptides to be assayed were 2-fold serially diluted in Dulbecco's PBS (D-PBS) starting from a concentration of approximately 1 mg/mL. Five μL of each dilution were added to each well and the plates were incubated at 37° C. for 3 hours. An overlayer of 10 mL of molten agarose comprising 6% Sabouraud Dextrose broth, 1% agarose, and 10 mM sodium phosphate, pH 7.4, (at approximately 45° C.) was then added and plates were incubated overnight at 37° C. Following this overnight incubation, a dilute Coomassie solution was poured into the plates and allowed to stain for 24 hours.
Clear zones of growth inhibition around each well were measured with calipers. The actual area of growth inhibition (mm^2) was calculated by subtracting the area of the well. Table 1 below sets out the results of the radial diffusion assays for tested peptides in terms of the number of picomoles (pmol) of peptide required to establish a 30 mm^2 area of growth inhibition calculated by PROBIT analysis (e.g., calculated from regression of the linear portion of log-concentration dose-response curve, log pmol/well vs. net area of inhibition).
For `CC[C@H](C)[C@H](NC(=O)[C@H](CC(C)C)NC(=O)[C@H](Cc1c[nH]c2ccccc12)NC(=O)CNC(=O)[C@@H](NC(=O)[C@H](CCCCN)NC(=O)[C@H](CO)NC(=O)[C@@H](N)CCCCN)C(C)C)C(=O)N[C@@H](CCC(N)=O)C(=O)N[C@@H](CC(C)C)C(=O)N[C@@H](Cc1ccccc1)C(=O)N[C@@H](Cc1cccc2ccccc12)C(=O)N[C@@H](CCCCN)C(=O)N[C@@H](Cc1cccc2ccccc12)C(N)=O` [XMP.146] (H-KSKVGWLIQLF[1Nal]K[1Nal]-NH2), the “C. albicans pmol/30 mm^2 zone” value was “b (No detectable activity up to 5 μg/well)”.
`CC[C@H](C)[C@H](NC(=O)[C@H](CC(C)C)NC(=O)[C@H](Cc1cccc2ccccc12)NC(=O)CNC(=O)[C@@H](NC(=O)[C@H](CCCCN)NC(=O)[C@H](CO)NC(=O)[C@@H](N)CCCCN)C(C)C)C(=O)N[C@@H](CCC(N)=O)C(=O)N[C@@H](CC(C)C)C(=O)N[C@@H](Cc1ccccc1)C(=O)N[C@@H](Cc1cccc2ccccc12)C(=O)N[C@@H](CCCCN)C(=O)N[C@@H](CCCCN)C(N)=O` [XMP.148] (H-KSKVG[1Nal]LIQLF[1Nal]KK-NH2) was tested, and the “C. albicans pmol/30 mm^2 zone” value was greater than 2805 pmol/30 mm^2 zone.
For `CC[C@H](C)[C@H](NC(=O)[C@H](CC(C)C)NC(=O)[C@H](Cc1cccc2ccccc12)NC(=O)CNC(=O)[C@@H](NC(=O)[C@H](CCCCN)NC(=O)[C@H](CO)NC(=O)[C@@H](N)CCCCN)C(C)C)C(=O)N[C@@H](CCC(N)=O)C(=O)N[C@@H](CC(C)C)C(=O)N[C@@H](Cc1ccccc1)C(=O)N[C@@H](Cc1c[nH]cn1)C(=O)N[C@@H](CCCCN)C(=O)N[C@@H](Cc1cccc2ccccc12)C(N)=O` [XMP.222] (H-KSKVG[1Nal]LIQLFHK[1Nal]-NH2), the “C. albicans pmol/30 mm^2 zone” value was >2,610 pmol/30 mm^2 zone.
`CC[C@H](C)[C@H](NC(=O)[C@H](CC(C)C)NC(=O)[C@H](Cc1cccc2ccccc12)NC(=O)CNC(=O)[C@@H](NC(=O)[C@H](CCCCN)NC(=O)[C@H](CO)NC(=O)[C@@H](N)CCCCN)C(C)C)C(=O)N[C@@H](CCC(N)=O)C(=O)N[C@@H](Cc1cccc2ccccc12)C(=O)N[C@@H](Cc1ccccc1)C(=O)N[C@@H](Cc1c[nH]cn1)C(=O)N[C@@H](CCCCN)C(=O)N[C@@H](CCCCN)C(N)=O` [XMP.223] (H-KSKVG[1Nal]LIQ[1Nal]FHKK-NH2) was tested, and the “C. albicans pmol/30 mm^2 zone” value was “b (No detectable activity up to 5 μg/well)”.
In the case of `CC[C@H](C)[C@H](NC(=O)[C@H](CC(C)C)NC(=O)[C@H](Cc1cccc2ccccc12)NC(=O)CNC(=O)[C@@H](NC(=O)[C@H](CCCCN)NC(=O)[C@H](CO)NC(=O)[C@@H](N)CCCCN)C(C)C)C(=O)N[C@@H](Cc1ccc(N)cc1)C(=O)N[C@@H](CC(C)C)C(=O)N[C@@H](Cc1ccccc1)C(=O)N[C@@H](Cc1c[nH]cn1)C(=O)N[C@@H](CCCCN)C(=O)N[C@@H](CCCCN)C(N)=O` [XMP.224] (H-KSKVG[1Nal]LI[Phe(4-NH2)]LFHKK-NH2), the “C. albicans pmol/30 mm^2 zone” value is reported as >2,443 pmol/30 mm^2 zone.
`CC[C@H](C)[C@H](NC(=O)[C@H](CC(C)C)NC(=O)[C@H](Cc1cccc2ccccc12)NC(=O)[C@H](Cc1ccc(N)cc1)NC(=O)[C@@H](NC(=O)[C@H](CCCCN)NC(=O)[C@H](CO)NC(=O)[C@@H](N)CCCCN)C(C)C)C(=O)N[C@@H](CCC(N)=O)C(=O)N[C@@H](CC(C)C)C(=O)N[C@@H](Cc1ccccc1)C(=O)N[C@@H](Cc1c[nH]cn1)C(=O)N[C@@H](CCCCN)C(=O)N[C@@H](CCCCN)C(N)=O` [XMP.225] (H-KSKV[Phe(4-NH2)][1Nal]LIQLFHKK-NH2) was tested, and the “C. albicans pmol/30 mm^2 zone” value was >2,506 pmol/30 mm^2 zone.
In the case of `CC[C@H](C)[C@H](NC(=O)[C@H](CC(C)C)NC(=O)[C@H](Cc1cccc2ccccc12)NC(=O)CNC(=O)[C@@H](NC(=O)[C@H](CCCCN)NC(=O)[C@H](CO)NC(=O)[C@@H](N)CCCCN)C(C)C)C(=O)N[C@@H](CCC(N)=O)C(=O)N[C@@H](CC(C)C)C(=O)N[C@@H](Cc1c[nH]c2ccccc12)C(=O)N[C@@H](Cc1c[nH]cn1)C(=O)N[C@@H](CCCCN)C(=O)N[C@@H](CCCCN)C(N)=O` [XMP.226] (H-KSKVG[1Nal]LIQLWHKK-NH2), the “C. albicans pmol/30 mm^2 zone” value is reported as >2,597 pmol/30 mm^2 zone.
In the case of `CC[C@H](C)[C@H](NC(=O)[C@H](CC(C)C)NC(=O)[C@H](Cc1c[nH]c2ccccc12)NC(=O)CNC(=O)[C@@H](NC(=O)[C@H](CCCCN)NC(=O)[C@H](CO)NC(=O)[C@@H](N)CCCCN)C(C)C)C(=O)N[C@@H](CCC(N)=O)C(=O)N[C@@H](Cc1cccc2ccccc12)C(=O)N[C@@H](Cc1ccccc1)C(=O)N[C@@H](Cc1c[nH]cn1)C(=O)N[C@@H](CCCCN)C(=O)N[C@@H](Cc1cccc2ccccc12)C(N)=O` [XMP.227] (H-KSKVGWLIQ[1Nal]FHK[1Nal]-NH2), the “C. albicans pmol/30 mm^2 zone” value is reported as >2,365 pmol/30 mm^2 zone.
With `CC[C@H](C)[C@H](NC(=O)[C@H](CC(C)C)NC(=O)[C@H](Cc1c[nH]c2ccccc12)NC(=O)CNC(=O)[C@@H](NC(=O)[C@H](CCCCN)NC(=O)[C@H](CO)NC(=O)[C@@H](N)CCCCN)C(C)C)C(=O)N[C@@H](Cc1ccc(N)cc1)C(=O)N[C@@H](CC(C)C)C(=O)N[C@@H](Cc1ccccc1)C(=O)N[C@@H](Cc1c[nH]cn1)C(=O)N[C@@H](CCCCN)C(=O)N[C@@H](Cc1cccc2ccccc12)C(N)=O` [XMP.228] (H-KSKVGWLI[Phe(4-NH2)]LFHK[1Nal]-NH2) the “C. albicans pmol/30 mm^2 zone” value was “b (No detectable activity up to 5 μg/well)”.
`CC[C@H](C)[C@H](NC(=O)[C@H](CC(C)C)NC(=O)[C@H](Cc1c[nH]c2ccccc12)NC(=O)[C@H](Cc1ccc(N)cc1)NC(=O)[C@@H](NC(=O)[C@H](CCCCN)NC(=O)[C@H](CO)NC(=O)[C@@H](N)CCCCN)C(C)C)C(=O)N[C@@H](CCC(N)=O)C(=O)N[C@@H](CC(C)C)C(=O)N[C@@H](Cc1ccccc1)C(=O)N[C@@H](Cc1c[nH]cn1)C(=O)N[C@@H](CCCCN)C(=O)N[C@@H](Cc1cccc2ccccc12)C(N)=O` [XMP.229] was tested, and the “C. albicans pmol/30 mm^2 zone” value was “b (No detectable activity up to 5 μg/well)”.
`CC[C@H](C)[C@H](NC(=O)[C@H](CC(C)C)NC(=O)[C@H](Cc1c[nH]c2ccccc12)NC(=O)CNC(=O)[C@@H](NC(=O)[C@H](CCCCN)NC(=O)[C@H](CO)NC(=O)[C@@H](N)CCCCN)C(C)C)C(=O)N[C@@H](CCC(N)=O)C(=O)N[C@@H](CC(C)C)C(=O)N[C@@H](Cc1c[nH]c2ccccc12)C(=O)N[C@@H](Cc1c[nH]cn1)C(=O)N[C@@H](CCCCN)C(=O)N[C@@H](Cc1cccc2ccccc12)C(N)=O` [XMP.230] (H-KSKVGWLIQLWHK[1Nal]-NH2) was tested, and the “C. albicans pmol/30 mm^2 zone” value was >2,386 pmol/30 mm^2 zone.
With `CC[C@H](C)[C@H](NC(=O)[C@H](CC(C)C)NC(=O)[C@H](Cc1c[nH]c2ccccc12)NC(=O)CNC(=O)[C@@H](NC(=O)[C@H](CCCCN)NC(=O)[C@H](CO)NC(=O)[C@@H](N)CCCCN)C(C)C)C(=O)N[C@@H](CCC(N)=O)C(=O)N[C@@H](Cc1cccc2ccccc12)C(=O)N[C@@H](Cc1ccccc1)C(=O)N[C@@H](Cc1cccc2ccccc12)C(=O)N[C@@H](CCCCN)C(=O)N[C@@H](CCCCN)C(N)=O` [XMP.231] (H-KSKVGWLIQ[1Nal]F[1Nal]KK-NH2) the “C. albicans pmol/30 mm^2 zone” value was “b (No detectable activity up to 5 μg/well)”.
`CC[C@H](C)[C@H](NC(=O)[C@H](CC(C)C)NC(=O)[C@H](Cc1c[nH]c2ccccc12)NC(=O)CNC(=O)[C@@H](NC(=O)[C@H](CCCCN)NC(=O)[C@H](CO)NC(=O)[C@@H](N)CCCCN)C(C)C)C(=O)N[C@@H](Cc1ccc(N)cc1)C(=O)N[C@@H](CC(C)C)C(=O)N[C@@H](Cc1ccccc1)C(=O)N[C@@H](Cc1cccc2ccccc12)C(=O)N[C@@H](CCCCN)C(=O)N[C@@H](CCCCN)C(N)=O` [XMP.232] (H-KSKVGWLI[Phe(4-NH2)]LF[1Nal]KK-NH2) was tested, and the “C. albicans pmol/30 mm^2 zone” value was “b (No detectable activity up to 5 μg/well)”.
With `CC[C@H](C)[C@H](NC(=O)[C@H](CC(C)C)NC(=O)[C@H](Cc1c[nH]c2ccccc12)NC(=O)[C@H](Cc1ccc(N)cc1)NC(=O)[C@@H](NC(=O)[C@H](CCCCN)NC(=O)[C@H](CO)NC(=O)[C@@H](N)CCCCN)C(C)C)C(=O)N[C@@H](CCC(N)=O)C(=O)N[C@@H](CC(C)C)C(=O)N[C@@H](Cc1ccccc1)C(=O)N[C@@H](Cc1cccc2ccccc12)C(=O)N[C@@H](CCCCN)C(=O)N[C@@H](CCCCN)C(N)=O` [XMP.233] (H-KSKV[Phe(4-NH2)]WLIQLF[1Nal]KK-NH2) the “C. albicans pmol/30 mm^2 zone” value was “b (No detectable activity up to 5 μg/well)”.
`CC[C@H](C)[C@H](NC(=O)[C@H](CC(C)C)NC(=O)[C@H](Cc1c[nH]c2ccccc12)NC(=O)CNC(=O)[C@@H](NC(=O)[C@H](CCCCN)NC(=O)[C@H](CO)NC(=O)[C@@H](N)CCCCN)C(C)C)C(=O)N[C@@H](CCC(N)=O)C(=O)N[C@@H](CC(C)C)C(=O)N[C@@H](Cc1c[nH]c2ccccc12)C(=O)N[C@@H](Cc1cccc2ccccc12)C(=O)N[C@@H](CCCCN)C(=O)N[C@@H](CCCCN)C(N)=O` [XMP.234] (H-KSKVGWLIQLW[1Nal]KK-NH2) was tested, and the “C. albicans pmol/30 mm^2 zone” value was “b (No detectable activity up to 5 μg/well)”.

Same assay, conditions: pmoles of peptide added to well to achieve a 30 mm^2 zone, PROBIT analysis; crude or purified (P′) peptide; listed as XMP.225P′
For `CC[C@H](C)[C@H](NC(=O)[C@H](CC(C)C)NC(=O)[C@H](Cc1cccc2ccccc12)NC(=O)[C@H](Cc1ccc(N)cc1)NC(=O)[C@@H](NC(=O)[C@H](CCCCN)NC(=O)[C@H](CO)NC(=O)[C@@H](N)CCCCN)C(C)C)C(=O)N[C@@H](CCC(N)=O)C(=O)N[C@@H](CC(C)C)C(=O)N[C@@H](Cc1ccccc1)C(=O)N[C@@H](Cc1c[nH]cn1)C(=O)N[C@@H](CCCCN)C(=O)N[C@@H](CCCCN)C(N)=O` [XMP.225] (H-KSKV[Phe(4-NH2)][1Nal]LIQLFHKK-NH2), the “C. albicans pmol/30 mm^2 zone” value was >2,736 pmol/30 mm^2 zone.

Same assay, conditions: pmoles of peptide added to well to achieve a 30 mm^2 zone, PROBIT analysis; crude or purified (P′) peptide; listed as XMP.226P′
`CC[C@H](C)[C@H](NC(=O)[C@H](CC(C)C)NC(=O)[C@H](Cc1cccc2ccccc12)NC(=O)CNC(=O)[C@@H](NC(=O)[C@H](CCCCN)NC(=O)[C@H](CO)NC(=O)[C@@H](N)CCCCN)C(C)C)C(=O)N[C@@H](CCC(N)=O)C(=O)N[C@@H](CC(C)C)C(=O)N[C@@H](Cc1c[nH]c2ccccc12)C(=O)N[C@@H](Cc1c[nH]cn1)C(=O)N[C@@H](CCCCN)C(=O)N[C@@H](CCCCN)C(N)=O` [XMP.226] (H-KSKVG[1Nal]LIQLWHKK-NH2) was tested, and the “C. albicans pmol/30 mm^2 zone” value was >2,895 pmol/30 mm^2 zone.
